Where two headings read alike, the source gives them in different places.
Biological target: T1, His-tagged Bcl-2 (Homo sapiens, UniProt P10415)
T1 construct: gene BCL2; commercial His-tagged Bcl-2 protein (Abcam); tag kept
Experiment: competitive ELISA, His-tagged Bcl-2 vs immobilised biotinylated Bim peptide
Format: binding
Conditions: read-out: ELISA IC50 (μM) ^1

[1] = competition with Bim peptide (residues 81–106), 20 nM Bcl-2, PBS, room temperature

T1 sequence (P10415 whole entry): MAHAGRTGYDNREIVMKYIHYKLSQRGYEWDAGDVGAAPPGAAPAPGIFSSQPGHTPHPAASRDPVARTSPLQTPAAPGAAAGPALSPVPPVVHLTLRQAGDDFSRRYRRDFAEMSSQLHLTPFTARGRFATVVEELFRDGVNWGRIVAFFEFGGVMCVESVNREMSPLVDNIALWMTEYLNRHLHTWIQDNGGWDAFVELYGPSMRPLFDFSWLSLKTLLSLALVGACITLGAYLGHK

IC50 [µM] | IC50 [1] [µM] | SMILES
14.5 ± 1.2 |  | O=[N+]([O-])c1ccc(Nc2nnc(-c3cc(-c4ccc(Br)cc4)nc4ccccc34)o2)cc1 [6d]
 | 0.15 ± 0.02 | COc1ccc2nc(-c3ccc(Br)cc3)cc(-c3nnc(Nc4ccc([N+](=O)[O-])cc4)o3)c2c1 [6i]
 | 1.93 ± 0.007 | Cc1ccc(Nc2nnc(-c3cc(-c4ccc(Br)cc4)nc4ccccc34)o2)cc1 [6c]
